This assay deals with AcTPS2. Briefly: product formation, ethyl acetate extraction, Michaelis-Menten fit. In kind it is biochemical, Astilbe chinensis. Conditions: 50 mM Tris-HCl pH 7.5, 1 mM MgCl2, 2 mM DTT, 12.5% glycerol, 0.1% Tween 20, 30 °C, 1 h.

As usually defined, the Km is the concentration of substrate that gives half-maximal velocity.

Regarding `CC(C)=CCC/C(C)=C/CC/C(C)=C/COP(=O)(O)OP(=O)(O)O` [FPP, farnesyl diphosphate], the Michaelis-Menten constant (Km) was determined as 23.8 µM.

The record behind these values is publication PMC12602695 (Nature Communications, 2025).
